According to patent US20130011345A1, “FLAVOR-ENHANCING AMIDE COMPOUNDS” (priority 2011, published 2013):

Test: Sensory evaluation of the MSG-IMP umami composition combined with Formulas II and III by a trained sensory panel
Conditions: for Flavor Profile: trained sensory panel; for Effect on umami flavor of the MSG-IMP mixture (summary statement): combined with MSG-IMP mixture, all tested concentrations
Text: The MSG-IMP mixture (0.01% MSG and 0.005% IMP), an umami composition, was combined with Formulas II and III at different concentrations and evaluated by a trained sensory panel.

[1] = Formula concentration 1 ppm in MSG-IMP mixture (0.01% MSG and 0.005% IMP)
[2] = Formula concentration 500 ppb in MSG-IMP mixture (0.01% MSG and 0.005% IMP)

SMILES: C#CC#CCC/C=C/C(=O)NCC(C)CC (stereo not shown) [Formula II, (E)-N-(2-methylbutyl)nona-2-en-6,8-diynamide]
- Flavor Profile [1]: Increased umami flavor and less greasy
- Flavor Profile (Formula concentration 5 ppm in MSG-IMP mixture (0.01% MSG and 0.005% IMP)): Strong umami enhancement
- Flavor Profile [2]: Increased mouth-feel, savory
- Effect on umami flavor of the MSG-IMP mixture (summary statement): enhanced the umami flavor

SMILES: C#CC#CCC/C=C\C(=O)NCC(C)CC (stereo not shown) [Formula III, (Z)-N-(2-methylbutyl)nona-2-en-6,8-diynamide]
- Flavor Profile [1]: Increased mouthfullness, delocalized
- Flavor Profile [2]: Increased mouthfullness, delocalized
- Effect on umami flavor of the MSG-IMP mixture (summary statement): enhanced the umami flavor
